# Assays:
# GHSR-1a receptor = target: T1, GHSR-1a receptor (Homo sapiens, UniProt Q92847); assay: Internalization of GHSR-1a with Ghrelin(1-19)-Texas Red (high content ligand tracking); type: cell-based; conditions: 1 μM competitor, 10 nM Ghrelin(1-19)-Texas Red, 30 minutes at 37° C. (FIG. 7)
# T1 construct: expressed in transfected cells
# NK3R [1] = target: T2, NK3R (Homo sapiens, UniProt P29371); conditions: mixed cells
# T2 sequence (P29371 1-465): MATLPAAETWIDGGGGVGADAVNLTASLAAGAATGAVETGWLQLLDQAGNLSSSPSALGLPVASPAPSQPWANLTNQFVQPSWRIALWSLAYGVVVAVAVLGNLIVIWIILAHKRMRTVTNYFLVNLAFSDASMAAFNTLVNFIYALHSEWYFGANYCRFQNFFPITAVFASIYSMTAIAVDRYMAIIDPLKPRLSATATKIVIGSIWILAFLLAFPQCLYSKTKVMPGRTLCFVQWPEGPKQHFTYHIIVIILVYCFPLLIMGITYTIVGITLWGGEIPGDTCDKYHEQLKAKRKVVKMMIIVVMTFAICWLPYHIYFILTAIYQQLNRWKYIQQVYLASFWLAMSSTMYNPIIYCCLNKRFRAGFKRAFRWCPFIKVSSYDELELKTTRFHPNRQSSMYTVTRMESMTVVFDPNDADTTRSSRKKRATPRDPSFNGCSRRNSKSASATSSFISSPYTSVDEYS
# NK3R [2] = target: T2, NK3R; conditions: 1 μM competitor, 1 nM Atto655-NKB, 30 minutes at 37° C. (FIG. 3)
# SSTR-5 = target: T3, SSTR-5 (Homo sapiens, UniProt P35346); assay: Multiplexed internalization assay, SSTR-5 readout (Atto590-SST14) in mixed NK3R and SSTR5 cells; type: cell-based; conditions: for SSTR-5 internalization with excess competitor: 1 μM competitor (FIG. 5)
# T3 construct: expressed in transfected cells
# T3 sequence (P35346 whole entry): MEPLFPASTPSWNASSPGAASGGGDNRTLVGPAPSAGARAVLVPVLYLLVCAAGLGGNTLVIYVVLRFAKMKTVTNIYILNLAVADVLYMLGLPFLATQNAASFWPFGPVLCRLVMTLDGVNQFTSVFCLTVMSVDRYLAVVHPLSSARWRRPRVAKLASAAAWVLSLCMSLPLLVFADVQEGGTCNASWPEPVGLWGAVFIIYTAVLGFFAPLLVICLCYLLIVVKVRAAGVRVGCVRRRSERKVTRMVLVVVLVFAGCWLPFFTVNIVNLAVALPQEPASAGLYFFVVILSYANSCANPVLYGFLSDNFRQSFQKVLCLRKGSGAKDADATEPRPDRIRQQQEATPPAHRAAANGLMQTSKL
# hV1bR = hV1bR (Homo sapiens, UniProt P47901); conditions: 100 nM competitor, 5 nM BO-TMR-vasopressin, 30 minutes at 37° C. (FIG. 9)
# Sequence of hV1bR (P47901 whole entry): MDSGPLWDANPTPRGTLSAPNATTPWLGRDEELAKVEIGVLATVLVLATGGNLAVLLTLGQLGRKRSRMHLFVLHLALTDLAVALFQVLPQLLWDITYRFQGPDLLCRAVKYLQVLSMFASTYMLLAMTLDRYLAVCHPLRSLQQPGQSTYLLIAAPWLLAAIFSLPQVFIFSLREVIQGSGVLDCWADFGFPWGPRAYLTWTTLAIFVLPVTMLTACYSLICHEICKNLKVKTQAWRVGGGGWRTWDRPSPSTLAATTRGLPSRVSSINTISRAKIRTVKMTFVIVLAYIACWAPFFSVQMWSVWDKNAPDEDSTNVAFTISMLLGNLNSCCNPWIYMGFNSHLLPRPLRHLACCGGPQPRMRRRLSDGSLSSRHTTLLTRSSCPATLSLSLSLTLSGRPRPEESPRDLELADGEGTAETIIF
# [3] = target: recombinant human Somatostatin receptor 5 (Homo sapiens, UniProt P35346); conditions: 1 μM competitor, 100 nM Atto590-SST14, 30 minutes at 37° C. (FIG. 1)
# Sequence of recombinant human Somatostatin receptor 5 (P35346 whole entry): as the sequence (P35346 whole entry) above
# T1 sequence (Q92847 whole entry): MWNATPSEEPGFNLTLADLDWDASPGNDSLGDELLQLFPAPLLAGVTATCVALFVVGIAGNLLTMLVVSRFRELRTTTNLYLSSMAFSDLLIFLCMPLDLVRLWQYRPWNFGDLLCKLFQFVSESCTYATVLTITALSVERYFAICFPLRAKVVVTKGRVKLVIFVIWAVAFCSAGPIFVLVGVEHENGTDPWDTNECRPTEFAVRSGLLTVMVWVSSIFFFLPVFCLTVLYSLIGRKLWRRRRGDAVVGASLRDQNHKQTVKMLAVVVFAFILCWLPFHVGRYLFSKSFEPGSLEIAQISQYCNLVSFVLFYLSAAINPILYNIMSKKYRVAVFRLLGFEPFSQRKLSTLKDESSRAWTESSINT
molecule,measurement,setting,value
CC(C)(N)C(=O)N[C@H](COCc1ccccc1)C(=O)N1CCC2(CC1)CN(S(C)(=O)=O)c1ccccc12 [MK0677],formation of fluorescent ERCs on co-incubation with excess competitor,GHSR-1a receptor,blocked the formation of fluorescent ERCs
CC[C@H](NC(=O)c1c(C)c(-c2ccccc2)nc2ccccc12)c1ccccc1 [SB222200],NK3R mediated internalization of fluorescent ligand with excess competitor,NK3R [1]; 1 μM competitor (FIG. 5),blocked
same,formation of fluorescent ERCs on co-incubation with excess competitor,NK3R [2],blocked the formation of fluorescent ERCs
same,SSTR-5 internalization with excess competitor,SSTR-5,no effect
same,amount of internalized Atto590-SST14 with increasing amount of competitor,SSTR-5; dose response (FIG. 6),unaffected
Arg-8-Vasopressin,formation of fluorescent ERCs on co-incubation with excess competitor,hV1bR,blocked the formation of fluorescent ERCs in most cells
Somatostatin-14 [SST14],formation of fluorescent ERCs on co-incubation with excess competitor,[3],block the formation of fluorescent ERCs
same,intensity of Atto655-NKB in ERCs with increasing amount of competitor,NK3R [1]; dose response (FIG. 6),unchanged
same,SSTR-5 internalization with excess competitor,SSTR-5,inhibited in a selective manner

# From patent US20060105393A1, “Ligand-receptor tracking assays” (priority 2004, published 2006)
